Each structure is given as a SMILES string. Several values for one entry are separate records, joined by “and”; a condition that tells them apart may be missing. Equal entries are not always repeated. Where two headings read alike, the source gives them in different places.

This is an account of results in paper PMC7859449, “Short Chain (≤C4) Esterification Increases Bioavailability of Rosmarinic Acid and Its Potency to Inhibit Vascular Smooth Muscle Cell Proliferation” (Frontiers in Pharmacology, 2021).

Data set [1] concerns PDGF-BB-induced VSMC proliferation. Nature of the data set: Proliferation assay (resazurin conversion) in PDGF-BB-stimulated VSMC. In kind it is cell-based, rat. The note with it: for activity at 10 µM / IC50: Rattus norvegicus, resazurin; for activity at 10 µM: VSMC, 10 μmol/L, PDGF-BB 20 ng/mL 48 h, read-out: VSMC proliferation at 10 μmol/L (relative to vehicle control, RU); for IC50: PDGF-BB-induced VSMC proliferation. On the procedure: Primary VSMC were cultivated in DMEM-F12 (1:1) supplemented with 20% fetal bovine serum, 30 μg/ml gentamicin, and 15 ng/mL amphotericin B at 37°C in an incubator with 5% CO2 flow in a humidified atmosphere. Passages 4 to 12 were used in experiments.
Resazurin conversion to fluorescent resorufin was used as a measure for cell proliferation. Primary VSMC were seeded at 5 × 10^3 cells/well in a 96-well plate to grow for the next 24 h. Cells were then synchronized into G0 phase by serum deprivation for 24 h, pretreated with compounds for 30 min and stimulated with 20 ng/mL PDGF-BB for the next 48 h. After one washing step, cells were incubated in starvation medium containing 10 μg/mL resazurin for 2 h, and changes in fluorescence were monitored in a Tecan Spark (Tecan Group, Männedorf, Switzerland) plate reader at an excitation wavelength of 535 nm and an emission wavelength of 580 nm.
(Alamar Blue is a resazurin reagent that responds to reducing activity.)

On the set-up of data set [2]: method as in Baba et al., 2005. As to conditions: human; ref Baba et al., 2005; cited from earlier work.
Data set [3] can be described thus: Stability of RA QC samples under different storage conditions. In kind it is physicochemical, rat.
Details of data set [4]: method as in Nakazawa and Ohsawa, 1998. The note with it: rat; ref Nakazawa and Ohsawa, 1998; cited from earlier work.
Details of data set [5]: method as in earlier work. The note with it: rats and humans; ref Nakazawa and Ohsawa, 1998; Baba et al., 2005; Wang et al., 2017; cited from earlier work.
The next data set concerns VSMC. Nature of the data set: Cytotoxicity assay (LDH release) in PDGF-induced VSMC. In kind it is cell-based. As to conditions: PDGF-BB 24 h. As for the experimental part: Increased lactate dehydrogenase (LDH) release is an indicator for the loss of cell membrane integrity, associated with cell death. Determination of LDH release in response to increasing concentrations of RAME (7), RAET (8), RABU (9), RAOCT (10) and RADOD (11) was performed as previously described ([Liu et al., 2018]).
FIGURE 4 Cytotoxicity of RA esters in PDGF-induced VSMC. VSMC were pretreated with 0.1% DMSO or increasing concentrations of RA esters as indicated for 30 min, stimulated with 20 ng/mL PDGF-BB for 24 h, and released LDH was determined. Digitonin (80 μmol/L) was used as a positive control. Graphs show means ± SD out of 3 (RAME, RAET and RABU) and 4 (RAOCT and RADOD) independent experiments (n.s., not significant, p > 0.05, **p < 0.01, ***p < 0.001, ANOVA/Bonferroni, “vehicle with PDGF-BB” vs. “RA ester with PDGF-BB”).
A general note: Release of lactate dehydrogenase indicates damage to the cell membrane.

The next data set relates to cultured VSMC. Nature of the data set: Intracellular bioavailability of RA esters (LC-MS/MS of cytoplasmic fractions). In kind it is in vitro ADME, rat. As to conditions: for intracellular concentration as share of applied concentration: 10 μmol/L applied; for intracellular content normalized to protein: at 8.5 h; for intracellularly accumulated concentration: after 0.5 h exposure to 10 μmol/L; for intracellular level relative to those of RAME and RAET: exposure to 10 μmol/L. As for the experimental part:
After cells had been lysed and membranes had been removed by centrifugation, as described in the previous section, half of the cytoplasmic fractions were collected in 1.5 mL eppendorf tubes, diluted with methanol in 1:3 ratios and centrifuged at 5,600 × g for 20 min to remove proteins. Supernatants were then subjected to LC-MS/MS analysis to determine the cytoplasmic concentrations of RA esters at each treatment time point up to 16 h PDGF-BB stimulation. Cell culture media were also collected prior to the lysis procedure, diluted with methanol in a manner described above and subjected to LC-MS/MS. […] Intracellular concentrations of RA esters were normalized to protein concentrations at each treatment time point. Details of the quantification method are shown in the Supplementary Material.
FIGURE 6 Esters of rosmarinic acid with longer alkyl groups show increased intracellular bioavailability.

In the next data set the test system is PDGF-BB-induced VSMC. Nature of the data set: Cell cycle analysis (PI staining, flow cytometry). As to conditions: 3 μmol/L, PDGF-BB 16 h. Type of data set: cell-based, rat. As for the experimental part: Flow cytometry was used to analyze cell cycle progression. VSMC were seeded at a density of 10^5 cells per well in 12-well plates. After rendered quiescent, cells were treated with increasing concentrations of RAME (7), RAET (8), RABU (9) and RAOCT (10) or with 0.1% DMSO for 30 min followed by stimulation with 20 ng/mL PDGF-BB for 16 h. Cells were collected by trypsinization, washed and resuspended in a hypotonic propidium iodide (PI) solution containing 0.1% (v/v) Triton X-100, 0.1% (w/v) sodium citrate, and 50 μg/mL PI. PI-stained nuclei were analyzed on a FACSCalibur (BD Biosciences, Vienna, Austria) flow cytometer at an excitation wavelength of 488 nm and an emission wavelength of 585 nm.
FIGURE 5 Ethyl, butyl and octyl esters of rosmarinic acid (RA) inhibit the proliferation of VSMC by exerting the same mechanism of action as the methyl ester (A) Quiescent VSMC were treated with 0.1% DMSO or increasing concentrations of RA esters as indicated for 30 min, stimulated with 20 ng/mL PDGF-BB for 16 h and the cell cycle progression was analyzed using PI staining and flow cytometry. […]
(In flow cytometry, cells or beads pass a laser one at a time.)

The next data set deals with CDK4. On the set-up: method as in Liu et al., 2018. The note with it: ref Liu et al., 2018; cited from earlier work.
The subject of the next data set is CDK2. Also on record: method as in Liu et al., 2018. As to conditions: CDK2 kinase activity in vitro; ref Liu et al., 2018; cited from earlier work.
Setting [6] is: Long-term stability (15 d at -20°C), nominal 2 ng/mL.
The mark [7] stands for this setting: Long-term stability (15 d at -20°C), nominal 800 ng/mL.
Where [8] appears, read: Post-preparative stability (8 h at 4°C), nominal 2 ng/mL.
Where [9] appears, read: Post-preparative stability (8 h at 4°C), nominal 800 ng/mL.
The mark [10] stands for this setting: Short-term stability (8 h at room temperature), nominal 2 ng/mL.
Setting [11] is: Short-term stability (8 h at room temperature), nominal 800 ng/mL.
The mark [12] stands for this setting: Stock Solution Stability (8 h at room temperature), nominal 2 ng/mL.
The mark [13] stands for this setting: Stock Solution Stability (8 h at room temperature), nominal 800 ng/mL.

Consider `O=C(O)/C=C/c1cccc(O)c1` [Compound 3, m-coumaric acid, reference compound], for which, in [1], the activity at 10 µM was determined as 107 ± 15.2%.

`COc1cc(/C=C/C(=O)O)ccc1O` [Compound 4, ferulic acid, reference compound]: the activity at 10 µM in [1] came out at 107 ± 17.3%.

Turning to `O=C(O)CCc1cccc(O)c1` [Compound 5, m-hydroxyphenylpropionic acid, reference compound], in [1], the activity at 10 µM was 120 ± 27.8%.

For `O=C(/C=C/c1ccc(O)c(O)c1)O[C@H](Cc1ccc(O)c(O)c1)C(=O)O` [RA (6), Rosmarinic acid], the “cumulative proportions of all RA metabolites detected in urine (of the administered dose)” value in data set [2] is roughly 6%; in data set [4], “about 32%”. Further, the “Measured Concentration” value in [3] (Freeze-thaw stability (three cycles), nominal 2 ng/mL) came out at 2.14 ± 0.09 ng/mL; in [3] (Freeze-thaw stability (three cycles), nominal 800 ng/mL), 786.67 ± 50.06 ng/mL; in data set [3] (setting [6]), 2.18 ± 0.09 ng/mL; in data set [3] (setting [7]), 770.67 ± 50.01 ng/mL; in data set [3] (setting [8]) it was 1.88 ± 0.13 ng/mL; in data set [3] (setting [9]), 737.00 ± 8.00 ng/mL. Moreover, the “Measured Concentration” value in [3] (setting [10]) was determined as 1.79 ± 0.07 ng/mL; in data set [3] (setting [11]), 762.33 ± 27.75 ng/mL; in data set [3] (setting [12]), 1.90 ± 0.08 ng/mL; in [3] (setting [13]), 782.33 ± 27.43 ng/mL. The RE is given as 8.83% in data set [3] (setting [6]); -3.67% in data set [3] (setting [7]); -5.83% in data set [3] (setting [8]); -7.88% in [3] (setting [9]); -10.67% in data set [3] (setting [10]); -4.71% in data set [3] (setting [11]). The RE is on record as -4.83% in data set [3] (setting [12]) and -2.21% in data set [3] (setting [13]). Moreover, the activity at 10 µM in data set [1] came out at 78.1 ± 16.7%. Also, the “amount of orally ingested RA absorbed” value in data set [5] is “up to 1.69%”.

On to `CCCCOC(=O)[C@@H](Cc1ccc(O)c(O)c1)OC(=O)/C=C/c1ccc(O)c(O)c1` [RABU (9), rosmarinic acid butyl ester], for which the “cell death (LDH release)” value in the data set on VSMC (up to 30 μmol/L) is recorded as “did not induce cell death”. Also, in the data set with cultured VSMC, the “intracellular concentration as share of applied concentration” value (“intracellular concentration as share” for short) stood at 60%; the intracellularly accumulated concentration entry is “about 6 μmol/L”; the “intracellular level relative to those of RAME and RAET” value is roughly 3 fold. For the same compound, the “intracellular content normalized to protein” value with cultured VSMC (10 μmol/L) is recorded as “around 2 pmol per µg of protein”. Besides, in data set [1], the activity at 10 µM is 30.8 ± 5.2% and the IC50 (in general, the midpoint of a concentration-inhibition curve) turned out to be 2.84 µM. The “percentage of cells in G0/G1 compared to vehicle control” value in the data set with PDGF-BB-induced VSMC is “significantly higher percentage of cells in G0/G1”.

As to `CCCCCCCCCCCCOC(=O)[C@@H](Cc1ccc(O)c(O)c1)OC(=O)/C=C/c1ccc(O)c(O)c1` [RADOD (11), rosmarinic acid dodecyl ester], the “cell death (LDH release)” value with VSMC (30 μmol/L) was “comparable to that of the positive control, digitonin”. The VSMC proliferation entry in data set [1] (1 μmol/L (data not shown)) is “unaffected”; in [1] (3 μmol/L (data not shown)), “completely abrogated”. The activity at 10 µM in [1] was determined as 5.4 ± 8.1%.

Consider `CCOC(=O)[C@@H](Cc1ccc(O)c(O)c1)OC(=O)/C=C/c1ccc(O)c(O)c1` [RAET (8), rosmarinic acid ethyl ester], for which, in the data set on VSMC (up to 30 μmol/L), the “cell death (LDH release)” value was “did not induce cell death”. Moreover, in the data set on cultured VSMC, the “intracellular concentration as share” value was “about 20%”. Besides, the “intracellular content normalized to protein” value with cultured VSMC (10 μmol/L) is listed as “around 2 pmol per µg of protein”. In addition, in data set [1], the activity at 10 µM turned out to be 32.8 ± 8.1% and the IC50 was determined as 3.37 µM.

As to `COC(=O)[C@@H](Cc1ccc(O)c(O)c1)OC(=O)C=Cc1ccc(O)c(O)c1` [RAME (7), rosmarinic acid methyl ester], the “cell death (LDH release)” value in the data set on VSMC (up to 30 μmol/L) is “did not induce cell death”. In addition, in the data set on CDK4, the “activity of CDK4” value is listed as “affected only at much higher concentrations”. For the same compound, the “intracellular concentration as share” value with cultured VSMC is on record as “about 20%”. The “intracellular content normalized to protein” value in the data set on cultured VSMC (10 μmol/L) is on record as “around 2 pmol per µg of protein”. For the same compound, in [1], the activity at 10 µM is 41.5 ± 10.9% and the IC50 came out at 7.9 µM. Further, the IC50 in the data set on CDK2 was 11.4 µM.

Take `CCCCCCCCOC(=O)[C@@H](Cc1ccc(O)c(O)c1)OC(=O)/C=C/c1ccc(O)c(O)c1` [RAOCT (10), rosmarinic acid octyl ester]: the “cell death (LDH release)” value in the data set on VSMC (30 μmol/L) is “marked but not significant increase in LDH production”. For the same compound, in the data set on VSMC (3 and 10 μmol/L), the LDH release result is recorded as “distinct LDH release, which however did not reach significance”. Also, the “concentration within VSMC” value in the data set with cultured VSMC (10 μmol/L, 16.5 h time point) is reported as “remained relatively high”. Moreover, in the data set with cultured VSMC, the intracellularly accumulated concentration entry is listed as “about 6 μmol/L”; the “intracellular level relative to those of RAME and RAET” value is ~3 fold and ~4 fold. Besides, in [1], the activity at 10 µM was determined as 33.8 ± 14.7% and half-maximal inhibition (IC50) required 2.22 µM. In addition, the “percentage of cells in G0/G1 compared to vehicle control” value in the data set with PDGF-BB-induced VSMC is recorded as “significantly higher percentage of cells in G0/G1”.
